Test in all cases: NCI anticancer screen, dose series, 48 h
Test [1] concerns SR leukemia.
In test [2] the test system is OVCAR-8 ovarian.
Test [3] relates to A549 NSCLC.
For test [4], the system named is TK-10 renal.
Test [5] has as its system IGROV1 ovarian.
Test [6] relates to NCI-H522 lung.
Test [7] has as its system SN12C renal.
Test [8] has as its system K-562 leukemia.
The subject of test [9] is MCF7 breast.
Test [10] has as its system HS 578T breast.
Test [11] deals with BT-549 breast.
The subject of test [12] is CAKI-1 renal.

SMILES strings stand for the structures.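 In this assay, cells in 96-well plates receive the compound at five concentrations for 48 hours. Endpoints are linearly interpolated between the surrounding concentrations. TGI: concentration producing complete growth inhibition.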 A value given as a limit tells only on which side of the number the result lay.

As for `CCCC(C)NC1=C(NC(C)=O)C(=O)c2ccccc2C1=O` (configuration not stated), the TGI in test [1], in test [2], in test [3], in test [4], in test [5] and in test [6] was > 100 µM throughout. Also, the TGI in test [7] and in test [8] was > 100 µM throughout.
In the case of `CCc1ccc2oc(-c3cc(O)c(-c4nc5cc(CC)ccc5o4)cc3O)nc2c1`, the TGI in test [1], in test [2], in [3], in [4], in test [9] and in test [5] was > 100 µM in each case. Further, the TGI in test [10], in [7] and in [8] was > 100 µM each time.
As for `Nn1c(CCCCCCCCc2nnc(COc3ccc(Cl)cc3)n2N)nnc1COc1ccc(Cl)cc1`, the TGI in [11], in [3], in test [4], in test [9], in [5] and in test [6] was > 100 µM in each case. Besides, the TGI was > 100 µM in test [7], 35.6 µM in test [12] and > 100 µM in [8].
For `c1cc2nnnn2nc1N1CCCC1`, the TGI in test [1], in test [2], in [3], in test [4], in test [9] and in test [7] was > 100 µM throughout. Besides, the TGI in [12] and in [8] was > 100 µM each time.
As for `Cc1cc(C2(O)C=C(C(C)(C)C)C(=O)C(C(C)(C)C)=C2)c(C)cc1C1(O)C=C(C(C)(C)C)C(=O)C(C(C)(C)C)=C1`, the TGI in [11], in test [1], in [2], in test [3], in [4] and in test [9] was > 100 µM in each case. For the same compound, the TGI in [5], in [6], in test [7], in test [12] and in test [8] was > 100 µM each time.
`Cc1ccc2c(c1)[nH]c1cc(C(F)(F)F)ccc1[p+]2=O` (configuration not stated): the TGI in [1], in test [2], in [3], in test [4], in test [9] and in test [5] was > 100 µM each time. In addition, the TGI was > 100 µM in test [6], > 100 µM in test [7], > 100 µM in [12] and 66.4 µM in [8].
Regarding `C1CCC2C(C1)CCCC2NC1=NCCO1` (configuration not stated), the TGI in test [1], in test [2], in test [3], in test [4], in test [9] and in [5] was > 100 µM in each case. Besides, the TGI in test [6], in test [7], in test [12] and in test [8] was > 100 µM each time.
For the compound `NC1=NS(=O)(=O)Nc2nc(-c3ccc([N+](=O)[O-])o3)[nH]c21`, the TGI in [2] is 89.3 µM; in [3], > 100 µM; in test [4], 33 µM; in [5], 31.5 µM; in [6] it was 33.4 µM; in [7], 36.4 µM. Also, the results for the TGI in test [12] and in test [8] were 35.7 µM and 22.9 µM, respectively.
With `CC(=O)C1=C(C)NC2C=CC=CN12` (configuration not stated), the TGI in test [1], in test [2], in [3], in test [4], in test [5] and in [6] was > 100 µM throughout. Further, the TGI in test [7], in test [12] and in test [8] was > 100 µM each time.
On to `COC(=O)C1=CC(=O)OC1(OO)c1ccccc1` (configuration not stated), for which the TGI in test [11], in test [1], in [2], in test [3], in test [4] and in test [9] was > 100 µM each time. Moreover, the TGI in test [5], in [6], in test [7], in [12] and in test [8] was > 100 µM throughout.
Regarding `COc1ccc(O)cc1`, the TGI in test [1], in test [2], in [3], in [4], in test [5] and in test [7] was > 100 µM in each case. The TGI in test [12] and in test [8] was > 100 µM throughout.
Turning to `O=C1Nc2c(ccc(Cl)c2I)C1=O`, the TGI is 42.2 µM in [1]; 76.7 µM in [2]; > 100 µM in test [3]; 99.2 µM in test [4]; 30.7 µM in test [5]; 30.6 µM in test [6]. Moreover, the TGI in test [7] stood at 30.9 µM; in test [12], 30.6 µM; in test [8] it was 73.2 µM.
Take `NC1=NS(=O)(=O)Nc2nc(-c3ccc(Cl)cc3)c(-c3ccc(Cl)cc3)nc21`: the TGI in test [1], in [2], in test [3], in test [4], in test [5] and in test [6] was > 100 µM in each case. For the same compound, the TGI in [7], in test [12] and in [8] was > 100 µM in each case.
On to `CCCCCCCCCCCCCCCCCC(=O)O[C@H](COC(=O)CCCCCCCCCCC)COC(=O)CCCCCCCCCCCCCCC`, for which the TGI in test [1], in test [2], in test [3], in test [4], in [5] and in test [7] was > 100 µM each time. For the same compound, the TGI in [12] and in test [8] was > 100 µM in each case.

The values above are taken from PubChem BioAssay (NCI).
